{
  "source": "patent US20070003608A1",
  "about": "“Compounds, compositions and methods for the treatment of viral infections and other medical disorders” (priority 2005, published 2007)",
  "key": {"[1]": {"test_system": "human lung fibroblast cells (MRC-5)", "details": "Table 7; cited from earlier work"}, "[2]": {"test_system": "HSV-1", "details": "Human HSV replication in MRC-5 human lung fibroblasts, DNA reduction, about 24 h; average of two experiments (HDP-CDV single determination in duplicate); cited from earlier work"}, "[3]": {"test_system": "human lung fibroblast cells (MRC-5)", "assay": "Cytotoxicity in vitro in MRC-5 human lung fibroblast cells, visual estimate of 50% reduction in cell number", "details": "MRC-5 cells, 5 days; Table 2"}, "[4]": {"test_system": "Human Cytomegalovirus (HCMV)", "assay": "HCMV antiviral assay, HCMV DNA quantified by DNA hybridization in MRC-5 cells", "format": "cell-based"}, "[5]": {"test_system": "Variola Minor Garcia", "details": "cited from earlier work"}, "[6]": {"test_system": "Variola Major, Yamada", "details": "cited from earlier work"}, "[7]": {"assay": "Quantitative whole body autoradiograph after oral [2-14C] HDP-cidofovir", "details": "mouse, 4 hours after a 5 mg/kg oral dose of [2-14C] HDP-cidofovir"}, "[8]": {"assay": "Cytotoxicity in vitro in MRC-5 human lung fibroblast cells, visual estimate of 50% reduction in cell number", "details": "human, MRC-5 human lung fibroblast cells"}, "[9]": {"test_system": "Vaccinia", "details": "Vero cells, 1000 pfu/well, neutral red; average of 3 determinations; cited from earlier work"}, "[10]": {"test_system": "Vero cells", "details": "50% cytotoxic concentration in Vero cells; cited from earlier work"}, "[11]": {"test_system": "Cowpox", "details": "cited from earlier work"}, "[12]": {"test_system": "Variola Major, Bangladesh", "details": "cited from earlier work"}, "[13]": {"test_system": "HIV-1", "assay": "HIV-1 plaque reduction assay in HT4-6C cells", "format": "cell-based", "details": "HIV-1 plaque reduction EC50 compared with adefovir"}, "[14]": {"test_system": "HIV-1", "details": "cited from earlier work"}, "[15]": {"test_system": "HT4-6C Cells", "details": "Table 6; cited from earlier work"}, "[16]": {"details": "Human CMV replication in MRC-5 human lung fibroblasts, DNA reduction, average of 3 to 6 determinations (ADV single replication in duplicate), read-out: EC50"}},
  "note": "Read-outs that look alike come from different tables or passages of the source.",
  "data": [
    {"molecule": "CCCCCCCCCCCCCCCCCCOCCCOP(=O)(O)COC(CO)Cn1ccc(N)nc1=O", "note": "(stereo not drawn) [1-O-octadecylpropanediol-3-CDV, 1-O-octadecylpropanediol-3-cidofovir]", "values": [
      {"measurement": "CC50", "setting": "[1]", "result": 32, "unit": "µM"},
      {"measurement": "EC50", "setting": "[2]", "result": 0.003, "unit": "µM"},
      {"measurement": "CC50", "setting": "[3]", "result": 32, "unit": "µM"},
      {"measurement": "EC50", "setting": "[4]; [16]", "result": 0.03, "unit": "nM"}
    ]},
    {"molecule": "CCCCCCCCCCCCCCCCOP1(=O)CO[C@@H](Cn2ccc(N)nc2=O)CO1", "note": "(stereo partly drawn) [Hexadecyl-cCDV, hexadecyl cyclic cidofovir]", "values": [
      {"measurement": "CC50", "setting": "[3]", "result": 6.5, "unit": "µM"},
      {"measurement": "EC50", "setting": "[4]; [16]", "result": 100, "unit": "nM"}
    ]},
    {"molecule": "CCCCCCCCCCCCCCCCCCOCCOP(=O)(O)COC(CO)Cn1ccc(N)nc1=O", "note": "(stereo not drawn) [1-O-octadecylpropanediol-2-CDV, 1-O-octadecylethanediol-2-cidofovir]", "values": [
      {"measurement": "EC50", "setting": "[4]; [16]", "result": 40, "unit": "nM"}
    ]},
    {"molecule": "CCCCCCCCCCCCCCCCOCCCOP(=O)(O)COC(CO)Cn1ccc(N)nc1=O", "note": "(stereo not drawn) [HDP-CDV, hexadecyloxypropyl-cidofovir]", "values": [
      {"measurement": "EC50", "setting": "[5]", "result": 0.0006, "unit": "µM"},
      {"measurement": "EC50", "setting": "[6]", "result": 0.0015, "unit": "µM"},
      {"measurement": "tissue distribution of drug", "setting": "[7]", "result": "distributed primarily in the GI tract as well as organs including the lung, heart, liver, and kidney"},
      {"measurement": "CC50 at 5 days", "setting": "[8]", "result": 10, "unit": "µM"},
      {"measurement": "EC50", "setting": "[9]", "result": "< 0.03", "unit": "µM"},
      {"measurement": "CC50", "setting": "[10]", "result": "> 0.1", "unit": "µM"},
      {"measurement": "EC50", "setting": "[11]", "result": "< 0.03", "unit": "µM"},
      {"measurement": "EC50", "setting": "[4]; Human betaherpesvirus 5, MRC5, Human CMV replication in MRC-5 human lung fibroblasts, DNA reduction, average of 3 to 6 determinations (ADV single replication in duplicate), read-out: EC50", "result": 0.002, "unit": "nM"},
      {"measurement": "EC50", "setting": "[12]", "result": 0.0015, "unit": "µM"}
    ]},
    {"molecule": "CCCCCCCCCCCCCCCCCCOCCOP1(=O)COC(Cn2ccc(N)nc2=O)CO1", "note": "(stereo not drawn) [1-O-octadecylpropanediol-2-cCDV, 1-O-octadecylethanediol-2-cyclic cidofovir]", "values": [
      {"measurement": "EC50", "setting": "[4]; [16]", "result": 55000, "unit": "nM"}
    ]},
    {"molecule": "CCCCCCCCCCCCCCCCOCCCOP(=O)(O)COCCn1cnc2c(N)ncnc21", "note": "[HDP-ADV, 1-O-hexadecylpropanediol-3-adefovir]", "values": [
      {"measurement": "logs more active than adefovir itself", "setting": "[13]", "result": "more than 5 logs"}
    ]},
    {"molecule": "Nc1ncnc2c1ncn2CCOCP(=O)(O)O", "note": "[Adefovir, adefovir, reference compound]", "values": [
      {"measurement": "EC50", "setting": "[14]; HIV replication in HT4-6C cells, plaque reduction, average of 4 experiments, Table 6, read-out: EC50", "result": 8.2, "unit": "µM"},
      {"measurement": "EC50", "setting": "[14]; HIV-1 LAI infected HT4-6C cells, 3 days, preliminary experiments, Table 5, read-out: EC50, μM, in HIV-1 plaque reduction assay", "result": 16, "unit": "µM"},
      {"measurement": "CC50 at 5 days", "setting": "[8]", "result": "> 1000", "unit": "µM"},
      {"measurement": "CC50", "setting": "[15]", "result": "> 1000", "unit": "µM"},
      {"measurement": "EC50", "setting": "[4]; Human betaherpesvirus 5, MRC5", "result": 210, "unit": "nM"},
      {"measurement": "EC50", "setting": "[4]; Human betaherpesvirus 5, MRC5, 120 h, MRC-5 cells, 5 days, DNA hybridization, preliminary experiments, second TABLE 1, read-out: HCMV EC50", "result": 55000, "unit": "nM"}
    ]}
  ]
}
